Measurements as given in patent US9550772B2, “Azaindole derivatives as multi kinase inhibitors” (ORIBASE PHARMA, priority 2012, dated 2017).
Read-outs that look alike come from different tables or passages of the source.

Key:
[1] = biological target: T1, PDGFRA (PDGFR alpha) (Homo sapiens, UniProt P16234); test: In vitro kinase assay (Z'-LYTE, Invitrogen); assay type: biochemical; details: compound at 100 nM, ATP Km apparent, read-out: % of inhibition of the kinase compared to the control
T1 construct: purchased Invitrogen
Summary of the method: (§1)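 Compounds were tested at 100 nM in 1% DMSO final against each kinase with its peptide substrate, ATP at apparent Km, in 50 mM HEPES pH 7.5 with 10 mM MgCl2, 1 mM EGTA, 0.01% BRIJ-35. Phosphorylation was quantified by Z′-LYTE coupled protease/FRET emission ratio.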

[2] = biological target: T2, EGFR (ErbB1) T790M L858R (Homo sapiens, UniProt P00533, L858R/T790M); test: In vitro kinase assay (Z'-LYTE, Invitrogen); assay type: biochemical; details: compound at 100 nM, ATP Km apparent, read-out: % of inhibition of the kinase compared to the control
T2 construct: purchased Invitrogen
T2 sequence (P00533 25-1210 T790M/L858R): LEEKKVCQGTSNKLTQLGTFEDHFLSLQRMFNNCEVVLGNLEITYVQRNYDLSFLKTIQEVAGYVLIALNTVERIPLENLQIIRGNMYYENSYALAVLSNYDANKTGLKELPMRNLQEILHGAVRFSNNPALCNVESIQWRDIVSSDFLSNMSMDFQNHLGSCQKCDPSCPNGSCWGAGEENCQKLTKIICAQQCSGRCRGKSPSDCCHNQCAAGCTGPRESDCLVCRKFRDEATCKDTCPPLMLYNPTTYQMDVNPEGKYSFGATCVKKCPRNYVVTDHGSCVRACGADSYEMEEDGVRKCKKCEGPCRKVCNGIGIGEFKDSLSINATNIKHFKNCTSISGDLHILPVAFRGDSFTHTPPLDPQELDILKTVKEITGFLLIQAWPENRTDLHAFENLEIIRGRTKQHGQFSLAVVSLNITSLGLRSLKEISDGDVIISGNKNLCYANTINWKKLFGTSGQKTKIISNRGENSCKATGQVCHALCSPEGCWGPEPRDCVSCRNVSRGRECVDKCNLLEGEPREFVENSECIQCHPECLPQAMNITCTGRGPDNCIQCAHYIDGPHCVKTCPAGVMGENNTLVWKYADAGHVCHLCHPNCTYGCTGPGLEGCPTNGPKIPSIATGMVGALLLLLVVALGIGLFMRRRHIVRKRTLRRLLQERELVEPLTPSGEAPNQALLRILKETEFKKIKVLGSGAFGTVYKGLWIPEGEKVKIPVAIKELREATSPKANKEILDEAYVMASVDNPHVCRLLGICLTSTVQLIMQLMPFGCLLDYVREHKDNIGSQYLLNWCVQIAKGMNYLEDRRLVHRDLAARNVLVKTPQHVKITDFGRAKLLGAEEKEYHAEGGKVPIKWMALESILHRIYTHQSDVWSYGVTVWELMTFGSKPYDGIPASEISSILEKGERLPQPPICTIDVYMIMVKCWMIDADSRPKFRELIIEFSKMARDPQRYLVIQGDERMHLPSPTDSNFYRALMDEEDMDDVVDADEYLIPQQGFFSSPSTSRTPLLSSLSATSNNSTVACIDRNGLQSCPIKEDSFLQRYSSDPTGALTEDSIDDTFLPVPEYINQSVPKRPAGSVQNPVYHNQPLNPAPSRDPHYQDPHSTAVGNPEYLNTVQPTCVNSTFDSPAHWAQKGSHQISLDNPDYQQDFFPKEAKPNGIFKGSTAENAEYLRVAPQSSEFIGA
Summary of the method: as §1

[3] = biological target: T3, BRAF (Homo sapiens, UniProt P15056); test: In vitro kinase assay (Z'-LYTE, Invitrogen); assay type: biochemical; details: compound at 100 nM, ATP Km apparent, read-out: % of inhibition of the kinase compared to the control
T3 construct: purchased Invitrogen
T3 sequence (P15056 whole entry): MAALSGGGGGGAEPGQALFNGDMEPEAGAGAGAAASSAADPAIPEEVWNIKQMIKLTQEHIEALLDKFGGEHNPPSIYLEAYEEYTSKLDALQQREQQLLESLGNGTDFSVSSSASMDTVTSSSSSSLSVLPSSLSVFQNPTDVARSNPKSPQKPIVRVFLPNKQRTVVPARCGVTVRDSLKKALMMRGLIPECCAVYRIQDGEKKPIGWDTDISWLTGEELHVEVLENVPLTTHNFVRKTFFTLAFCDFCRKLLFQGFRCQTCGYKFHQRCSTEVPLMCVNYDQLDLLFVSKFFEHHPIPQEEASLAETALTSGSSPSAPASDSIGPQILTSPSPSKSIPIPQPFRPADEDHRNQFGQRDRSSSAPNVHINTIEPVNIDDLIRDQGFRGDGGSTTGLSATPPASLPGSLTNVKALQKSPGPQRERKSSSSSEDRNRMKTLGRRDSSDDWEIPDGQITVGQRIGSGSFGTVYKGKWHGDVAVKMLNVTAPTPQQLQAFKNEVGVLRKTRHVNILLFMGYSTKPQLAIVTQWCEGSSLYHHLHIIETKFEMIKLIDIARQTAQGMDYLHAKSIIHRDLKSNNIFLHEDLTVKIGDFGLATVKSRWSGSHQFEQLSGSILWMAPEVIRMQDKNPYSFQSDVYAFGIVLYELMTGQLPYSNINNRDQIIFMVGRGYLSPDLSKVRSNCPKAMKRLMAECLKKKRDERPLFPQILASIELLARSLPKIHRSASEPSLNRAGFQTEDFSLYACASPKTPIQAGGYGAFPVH
Summary of the method: as §1

[4] = biological target: T4, SRC (Homo sapiens, UniProt P12931); test: In vitro kinase assay (Z'-LYTE, Invitrogen); assay type: biochemical; details: compound at 100 nM, ATP Km apparent, read-out: % of inhibition of the kinase compared to the control
T4 construct: purchased Invitrogen
T4 sequence (P12931 whole entry): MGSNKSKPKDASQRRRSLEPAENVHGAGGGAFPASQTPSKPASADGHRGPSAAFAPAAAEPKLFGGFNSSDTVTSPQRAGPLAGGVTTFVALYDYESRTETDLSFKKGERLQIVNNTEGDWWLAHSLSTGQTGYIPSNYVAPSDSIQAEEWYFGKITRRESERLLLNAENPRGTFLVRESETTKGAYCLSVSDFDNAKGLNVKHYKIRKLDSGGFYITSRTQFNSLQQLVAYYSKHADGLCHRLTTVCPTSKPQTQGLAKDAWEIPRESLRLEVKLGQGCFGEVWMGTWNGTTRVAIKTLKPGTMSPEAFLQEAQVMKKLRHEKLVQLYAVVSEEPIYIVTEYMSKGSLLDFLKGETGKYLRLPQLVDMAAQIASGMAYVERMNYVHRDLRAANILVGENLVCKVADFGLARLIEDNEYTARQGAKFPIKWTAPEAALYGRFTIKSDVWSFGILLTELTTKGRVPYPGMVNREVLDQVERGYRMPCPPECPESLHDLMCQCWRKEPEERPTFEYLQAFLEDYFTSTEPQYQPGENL
Summary of the method: as §1

[5] = biological target: T5, KDR (VEGFR2) (Homo sapiens, UniProt P35968); test: In vitro kinase assay (Z'-LYTE, Invitrogen); assay type: biochemical; details: compound at 100 nM, ATP Km apparent, read-out: % of inhibition of the kinase compared to the control
T5 construct: purchased Invitrogen
T5 sequence (P35968 20-1356): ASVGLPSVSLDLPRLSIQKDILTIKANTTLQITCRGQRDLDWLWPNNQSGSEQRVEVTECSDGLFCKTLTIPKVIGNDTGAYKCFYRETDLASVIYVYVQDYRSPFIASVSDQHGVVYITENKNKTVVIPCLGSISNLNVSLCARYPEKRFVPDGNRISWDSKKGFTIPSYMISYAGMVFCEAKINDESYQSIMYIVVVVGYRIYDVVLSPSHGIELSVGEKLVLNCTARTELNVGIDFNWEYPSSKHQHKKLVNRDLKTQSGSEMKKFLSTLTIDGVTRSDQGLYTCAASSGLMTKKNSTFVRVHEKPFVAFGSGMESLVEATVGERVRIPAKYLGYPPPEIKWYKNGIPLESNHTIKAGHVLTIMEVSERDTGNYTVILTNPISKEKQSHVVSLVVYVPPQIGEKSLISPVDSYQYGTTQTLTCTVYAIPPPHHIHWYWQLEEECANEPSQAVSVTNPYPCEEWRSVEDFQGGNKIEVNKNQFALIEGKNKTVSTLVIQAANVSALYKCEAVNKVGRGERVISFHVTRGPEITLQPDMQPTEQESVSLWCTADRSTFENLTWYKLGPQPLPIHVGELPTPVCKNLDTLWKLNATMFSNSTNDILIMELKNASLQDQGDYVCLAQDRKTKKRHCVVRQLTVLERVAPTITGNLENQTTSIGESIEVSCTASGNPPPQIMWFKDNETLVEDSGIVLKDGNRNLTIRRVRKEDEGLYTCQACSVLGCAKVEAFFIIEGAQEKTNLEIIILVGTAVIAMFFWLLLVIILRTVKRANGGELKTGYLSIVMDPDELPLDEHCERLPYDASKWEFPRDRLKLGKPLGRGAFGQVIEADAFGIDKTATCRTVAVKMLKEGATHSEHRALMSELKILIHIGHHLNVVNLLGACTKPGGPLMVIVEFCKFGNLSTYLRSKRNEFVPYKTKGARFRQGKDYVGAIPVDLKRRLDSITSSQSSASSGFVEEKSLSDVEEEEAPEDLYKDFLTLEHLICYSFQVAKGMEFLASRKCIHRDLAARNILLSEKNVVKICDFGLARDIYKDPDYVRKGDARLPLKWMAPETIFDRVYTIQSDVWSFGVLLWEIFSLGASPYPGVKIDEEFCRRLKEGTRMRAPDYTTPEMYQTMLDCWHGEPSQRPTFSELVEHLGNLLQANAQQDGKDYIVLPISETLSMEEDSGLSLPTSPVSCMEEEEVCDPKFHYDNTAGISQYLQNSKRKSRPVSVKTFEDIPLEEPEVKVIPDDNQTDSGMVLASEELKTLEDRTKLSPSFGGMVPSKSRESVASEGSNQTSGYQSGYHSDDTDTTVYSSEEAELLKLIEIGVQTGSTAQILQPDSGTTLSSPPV
Summary of the method: as §1

[6] = biological target: T6, EGFR (ErbB1) (Homo sapiens, UniProt P00533); test: In vitro kinase assay (Z'-LYTE, Invitrogen); assay type: biochemical; details: compound at 100 nM, ATP Km apparent, read-out: % of inhibition of the kinase compared to the control
T6 construct: purchased Invitrogen
T6 sequence (P00533 25-1210): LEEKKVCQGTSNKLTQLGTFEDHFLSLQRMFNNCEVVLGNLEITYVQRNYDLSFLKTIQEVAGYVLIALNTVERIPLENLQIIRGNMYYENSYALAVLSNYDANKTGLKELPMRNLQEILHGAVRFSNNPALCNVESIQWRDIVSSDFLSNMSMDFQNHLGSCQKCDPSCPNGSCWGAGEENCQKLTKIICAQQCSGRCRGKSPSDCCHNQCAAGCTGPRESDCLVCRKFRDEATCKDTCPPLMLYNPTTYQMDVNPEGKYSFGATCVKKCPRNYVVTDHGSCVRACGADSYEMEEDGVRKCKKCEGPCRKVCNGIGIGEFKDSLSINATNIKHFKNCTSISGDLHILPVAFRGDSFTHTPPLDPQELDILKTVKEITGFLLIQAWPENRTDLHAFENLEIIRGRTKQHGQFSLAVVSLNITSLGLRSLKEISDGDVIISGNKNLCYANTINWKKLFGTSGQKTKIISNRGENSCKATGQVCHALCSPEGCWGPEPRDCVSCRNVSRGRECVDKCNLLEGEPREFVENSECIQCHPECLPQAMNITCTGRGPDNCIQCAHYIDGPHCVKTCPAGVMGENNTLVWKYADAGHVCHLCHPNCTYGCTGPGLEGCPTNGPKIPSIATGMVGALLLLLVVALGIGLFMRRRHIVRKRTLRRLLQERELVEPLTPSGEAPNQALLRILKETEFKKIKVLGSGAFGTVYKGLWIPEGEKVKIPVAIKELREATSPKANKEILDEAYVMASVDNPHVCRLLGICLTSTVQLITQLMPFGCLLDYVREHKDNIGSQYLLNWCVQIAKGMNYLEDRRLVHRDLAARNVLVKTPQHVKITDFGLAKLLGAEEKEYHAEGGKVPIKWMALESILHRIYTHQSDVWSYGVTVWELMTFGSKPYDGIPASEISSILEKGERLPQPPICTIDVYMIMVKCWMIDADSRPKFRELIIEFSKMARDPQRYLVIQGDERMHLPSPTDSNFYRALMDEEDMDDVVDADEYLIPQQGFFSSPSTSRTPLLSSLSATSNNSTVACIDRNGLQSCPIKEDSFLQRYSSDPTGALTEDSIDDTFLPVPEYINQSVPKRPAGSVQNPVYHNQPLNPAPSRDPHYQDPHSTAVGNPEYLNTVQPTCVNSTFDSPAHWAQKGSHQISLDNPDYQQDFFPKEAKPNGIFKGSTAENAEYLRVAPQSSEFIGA
Summary of the method: as §1

[7] = biological target: T7, FGFR2 (Homo sapiens, UniProt P21802); test: In vitro kinase assay (Z'-LYTE, Invitrogen); assay type: biochemical; details: compound at 100 nM, ATP Km apparent, read-out: % of inhibition of the kinase compared to the control
T7 construct: purchased Invitrogen
Summary of the method: as §1

[8] = system: HUVEC cells; test: In vitro cell proliferation assay (MTT); assay type: cell-based; details: Homo sapiens, 72 hr, read-out: EC50, anti-proliferative activity
Summary of the method: (§2)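 MTT read-out after 72 hr exposure to escalating compound, 10 nM to 3 μM, in duplicate wells. Seeding 5×10^3 cells/well for tumour lines and 1×10^4 for HRMEC; EC50 derived by sigmoidal curve fitting, DMSO wells as 0% and 1% SDS wells as 100%.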

[9] = system: HepG2 cell line; test: In vitro cell proliferation assay (MTT); assay type: cell-based; details: Homo sapiens, HepG2, 72 hr, read-out: EC50, anti-proliferative activity
Summary of the method: as §2

[10] = system: HuH7 cell line; test: In vitro cell proliferation assay (MTT); assay type: cell-based; details: Homo sapiens, Huh-7, HuH7, 72 hr, 100 nM < EC50 < 1 μM, read-out: EC50, anti-proliferative activity
Summary of the method: as §2

[11] = system: A549 cell line; test: In vitro cell proliferation assay (MTT); assay type: cell-based; details: Homo sapiens, A549, 72 h, read-out: EC50, anti-proliferative activity
Summary of the method: as §2

[12] = system: HT29 cell line; test: In vitro cell proliferation assay (MTT); assay type: cell-based; details: Homo sapiens, HT-29, HT29, 72 hr, read-out: EC50, anti-proliferative activity
Summary of the method: as §2

[13] = system: HuCCT1 cell line; test: In vitro cell proliferation assay (MTT); assay type: cell-based; details: Homo sapiens, HuCCT-1, HuCCT1, 72 hr, read-out: EC50, anti-proliferative activity
Summary of the method: as §2

[14] = system: H1975 cell line; test: In vitro cell proliferation assay (MTT); assay type: cell-based; details: Homo sapiens, NCI-H1975, H1975, 72 hr, read-out: EC50, anti-proliferative activity
Summary of the method: as §2

[15] = system: HuH6 Clone 5 cell line; test: In vitro cell proliferation assay (MTT); assay type: cell-based; details: HUH-6-clone5, HuH6 Clone 5, 72 hr, read-out: EC50, anti-proliferative activity
Summary of the method: as §2

[16] = system: HRMEC cells; test: In vitro cell proliferation assay (MTT); assay type: cell-based; details: 72 hr, EC50 ≧ 1 μM, read-out: EC50, anti-proliferative activity
Summary of the method: as §2

[17] = system: HeLa cell line; test: In vitro cell proliferation assay (MTT); assay type: cell-based; details: Homo sapiens, 72 hr, 100 nM < EC50 < 1 μM, read-out: EC50, anti-proliferative activity
Summary of the method: as §2

[18] = system: MDA-MB-231 cell line; test: In vitro cell proliferation assay (MTT); assay type: cell-based; details: Homo sapiens, MDA-MB-231, 72 hr, EC50 ≦ 100 nM, read-out: EC50, anti-proliferative activity
Summary of the method: as §2

Structure (SMILES)	inhibition at 0.1 µM [1]	inhibition at 0.1 µM [2]	inhibition at 0.1 µM [3]	inhibition at 0.1 µM [4]	inhibition at 0.1 µM [5]	inhibition at 0.1 µM [6]	inhibition at 0.1 µM [7]	EC50 ([9]; 100 nM < EC50 < 1 μM)	EC50 [10]	EC50 ([11]; EC50 ≧ 1 μM)	EC50 ([12]; EC50 ≧ 1 μM)	EC50 ([14]; EC50 ≧ 1 μM)	EC50 ([15]; EC50 ≧ 1 μM)	EC50 ([9]; EC50 ≧ 1 μM)	EC50 ([8]; 100 nM < EC50 < 1 μM)	EC50 ([13]; 100 nM < EC50 < 1 μM)	EC50 ([13]; EC50 ≧ 1 μM)	other results
COC(=O)c1cc2cc(C=Cc3cc(NC(=O)c4ccc(CN5CCN(C)CC5)c(C(F)(F)F)c4)ccc3C)cnc2[nH]1 [OR0777, 5-(-2-{2-Methyl-5-[4-(4-methyl-piperazin-1-ylmethyl)-3-trifluoromethyl-benzoylamino]-phenyl}-vinyl)-1H-pyrrolo[2,3-b]pyridine-2-carboxylic acid methyl ester]	≥ 50%	< 50%	< 50%	≥ 50%	≥ 50%	≥ 50%	≥ 50%	0.1 to 1 µM	0.1 to 1 µM	≥ 1 µM	≥ 1 µM	≥ 1 µM			0.1 to 1 µM	0.1 to 1 µM		EC50 ([15]; 100 nM < EC50 < 1 μM): 0.1 to 1 µM
COC(=O)c1cc2cc(C=Cc3cc(NC(=O)c4ccc(CN5CCN(C)CC5)cc4)ccc3C)cnc2[nH]1 [OR0776, 5-(-2-{2-Methyl-5-[4-(4-methyl-piperazin-1-ylmethyl)-benzoylamino]-phenyl}-vinyl)-1H-pyrrolo[2,3-b]pyridine-2-carboxylic acid methyl ester]	≥ 50%		< 50%	< 50%	≥ 50%	< 50%	< 50%											EC50 [16]: ≥ 1 µM
COC(=O)c1cc2cc(CCc3cc(NC(=O)c4ccc(CN5CCN(C)CC5)c(C(F)(F)F)c4)ccc3C)cnc2[nH]1 [OR0748, 5-(2-{2-Methyl-5-[4-(4-methyl-piperazin-1-ylmethyl)-3-trifluoromethyl-benzoylamino]-phenyl}-ethyl)-1H-pyrrolo[2,3-b]pyridine-2-carboxylic acid methyl ester]	≥ 50%	≥ 50%	≥ 50%	≥ 50%	≥ 50%	≥ 50%	≥ 50%	0.1 to 1 µM	0.1 to 1 µM		≥ 1 µM		≥ 1 µM			0.1 to 1 µM		EC50 ([8]; EC50 ≦ 100 nM): ≤ 0.1 µM; EC50 [17]: 0.1 to 1 µM; EC50 [18]: ≤ 0.1 µM; EC50 ([11]; 100 nM < EC50 < 1 μM): 0.1 to 1 µM; EC50 ([11]; EC50 ≦ 100 nM): ≤ 0.1 µM; EC50 ([14]; 100 nM < EC50 < 1 μM): 0.1 to 1 µM

Second part, led by results:

inhibition at 0.1 µM [1]	inhibition at 0.1 µM [2]	inhibition at 0.1 µM [3]	inhibition at 0.1 µM [4]	inhibition at 0.1 µM [5]	inhibition at 0.1 µM [6]	inhibition at 0.1 µM [7]	EC50 ([9]; 100 nM < EC50 < 1 μM)	EC50 [10]	EC50 ([11]; EC50 ≧ 1 μM)	EC50 ([12]; EC50 ≧ 1 μM)	EC50 ([14]; EC50 ≧ 1 μM)	EC50 ([15]; EC50 ≧ 1 μM)	EC50 ([9]; EC50 ≧ 1 μM)	Structure (SMILES)	EC50 ([8]; 100 nM < EC50 < 1 μM)	EC50 ([13]; 100 nM < EC50 < 1 μM)	EC50 ([13]; EC50 ≧ 1 μM)	other results
≥ 50%	< 50%	< 50%	≥ 50%	≥ 50%	≥ 50%	≥ 50%			≥ 1 µM	≥ 1 µM	≥ 1 µM		≥ 1 µM	COC(=O)c1cc2cc(CNc3cc(NC(=O)c4ccc(CN5CCN(C)CC5)c(C(F)(F)F)c4)ccc3C)cnc2[nH]1 [OR0747, 5-({2-Methyl-5-[4-(4-methyl-piperazin-1-ylmethyl)-3-trifluoromethyl-benzoylamino]-phenylamino}-methyl)-1H-pyrrolo[2,3-b]pyridine-2-carboxylic acid methyl ester]	0.1 to 1 µM		≥ 1 µM	
≥ 50%	< 50%	< 50%	≥ 50%	≥ 50%	≥ 50%	≥ 50%		0.1 to 1 µM	≥ 1 µM		≥ 1 µM	≥ 1 µM	≥ 1 µM	COC(=O)c1cc2cc(COc3cc(NC(=O)c4ccc(CN5CCN(C)CC5)c(C(F)(F)F)c4)ccc3C)cnc2[nH]1 [OR0749, 5-{2-Methyl-5-[4-(4-methyl-piperazin-1-ylmethyl)-3-trifluoromethyl-benzoylamino]-phenoxymethyl}-1H-pyrrolo[2,3-b]pyridine-2-carboxylic acid methyl ester]	0.1 to 1 µM		≥ 1 µM	EC50 ([12]; 100 nM < EC50 < 1 μM): 0.1 to 1 µM
